Assay results: publication PMC9250534, “Synthesis and direct assay of large macrocycle diversities by combinatorial late-stage modification at picomole scale” (Nature Communications, 2022)
Numbered stars: 1 amine (or outer) side, 2 acyl side, 3 side chain; on linkers, the order of the positions; unused ones are H or OH. Bridge positions count the residues as written; N and C are the ends. Square brackets hold non-standard residues; d marks the D form. Peptide text beside a SMILES is read from it. * marks the point of attachment. ξ: configuration not given here. Pro(cis-4-NH-(E)-Cinnamoyl) = O=C(/C=C/c1ccccc1)N[C@@H]1CN[C@H](C(=O)O)C1; Pro(cis-4-NHBenzoyl(4-Cl)) = O=C(N[C@@H]1CN[C@H](C(=O)O)C1)c1ccc(Cl)cc1; ξPro(4-NHCO(5-Cl-2-thienyl)) = O=C(NC1CNC(C(=O)O)C1)c1ccc(Cl)s1; 2Thenoyl(5-Cl) = O=C(c1ccc(Cl)s1)*; Benzoyl(4-Cl) = O=C(c1ccc(Cl)cc1)*; Cysteamide = C(CS[*:3])N[*:1]; X1 = O=C(/C=C/c1ccccc1)*; Api = NC1(C(=O)O)CCNCC1; Dap = NC[CH](N)C(=O)O; Mpa = O=C(O)CCS

Biological target: MDM2 (Homo sapiens, UniProt Q00987)
Sequence (Q00987 whole entry): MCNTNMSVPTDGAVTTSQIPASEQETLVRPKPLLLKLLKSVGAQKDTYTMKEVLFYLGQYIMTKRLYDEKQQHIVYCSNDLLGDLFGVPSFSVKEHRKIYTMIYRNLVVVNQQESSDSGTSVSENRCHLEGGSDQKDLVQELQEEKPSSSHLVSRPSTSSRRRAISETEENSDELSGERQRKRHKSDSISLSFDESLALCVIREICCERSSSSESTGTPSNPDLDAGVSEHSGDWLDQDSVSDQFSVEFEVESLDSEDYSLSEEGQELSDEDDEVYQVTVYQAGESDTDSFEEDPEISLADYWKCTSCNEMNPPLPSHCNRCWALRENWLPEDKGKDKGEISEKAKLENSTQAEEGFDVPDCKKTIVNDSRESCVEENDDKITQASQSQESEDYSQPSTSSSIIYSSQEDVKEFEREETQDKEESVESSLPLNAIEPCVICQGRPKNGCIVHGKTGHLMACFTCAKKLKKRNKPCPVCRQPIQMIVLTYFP
Assay: MDM2 binding screen: displacement of fluorescent p53 peptide probe FP53 (fluorescence polarization)
Settings: for fraction fluorescent probe displaced, Screen: initial screen; for fraction fluorescent probe displaced, Screen / fraction fluorescent probe displaced, Replicate: crude macrocycle reactions
Description: We screened Library 2 in 384-microwell plates by dispensing the target protein MDM2 and reporter peptide into the wells containing the macrocycle reactions.
The products were screened for displacement of a p53-based fluorescent peptide from human MDM2. Final macrocycle concentrations were 10 µM. For each macrocycle, the MDM2 binding was measured once.
One fluorescence anisotropy reading was taken with a Tecan Infinite F200 Pro fluorescence plate reader (excitation at 485 nm, emission at 535 nm) at 25 °C. Data was collected and exported using the Tecan Infinite M200 Pro instrument software. The data was analyzed by Excel (version 2016).

| Structure (SMILES) | fraction fluorescent probe displaced, Screen (Acid 25) | fraction fluorescent probe displaced, Replicate (Acid 25) | fraction fluorescent probe displaced, Screen (Acid 91) | fraction fluorescent probe displaced, Replicate (Acid 91) | also measured |
| --- | --- | --- | --- | --- | --- |
| O=C1CCSSCCNC(=O)C(Cc2c[nH]c3ccccc23)NC(=O)C2CN(C(=O)c3ccc(Cl)cc3)CCN2C(=O)CCN1 (mixture of isomers) [X B2 D7 W Acid 25] | 0.15 | 0.07 | – | – | – |
| O=C1CCSSCCNC(=O)C2CN(C(=O)c3ccc(Cl)cc3)CCN2C(=O)C(Cc2ccccc2)NC(=O)CCN1 (mixture of isomers) [X B2 F D7 Acid 25] | -0.07 | 0.0465 | – | – | – |
| O=C1CCSSCCNC(=O)C2CN(C(=O)c3ccc(Cl)s3)CCN2C(=O)C(Cc2c[nH]c3ccccc23)NC(=O)CCN1 (mixture of isomers) [X B2 W D7 Acid 14] | – | – | – | – | fraction fluorescent probe displaced, Screen (Acid 14): 0.23; fraction fluorescent probe displaced, Replicate (Acid 14): 0.10 |
| O=C1CCSSCCNC(=O)C(Cc2ccccc2)NC(=O)C2CN(C(=O)c3ccc(Cl)s3)CCN2C(=O)c2cccc(c2)CN1 (mixture of isomers) [X B5 D7 F Acid 14] | – | – | – | – | fraction fluorescent probe displaced, Screen (Acid 14): -0.00483; fraction fluorescent probe displaced, Replicate (Acid 14): 0.0465 |
| O=C1CCSSCCNC(=O)C(Cc2ccccc2)NC(=O)C2CN(C(=O)C=Cc3ccccc3)CCN2C(=O)c2cccc(c2)CN1 (mixture of isomers) [X B5 D7 F Acid 91] | – | – | -0.10 | -0.00827 | – |
| O=C1CCSSCCNC(=O)C2CN(C(=O)c3ccc(Cl)cc3)CCN2C(=O)C(Cc2ccccc2)NC(=O)c2cccc(c2)CN1 (mixture of isomers) [X B5 F D7 Acid 25] | -0.00813 | 0.17 | – | – | – |
| O=C1CCNC(=O)C2CN(C(=O)c3ccc(Cl)cc3)CCN2C(=O)CCSSCCNC(=O)C(Cc2ccccc2)N1 (mixture of isomers) [X D7 B2 F Acid 25] | -0.04 | 0.07 | – | – | – |
| O=C1NC(Cc2c[nH]c3ccccc23)C(=O)NCCSSCCC(=O)N2CCN(C(=O)c3ccc(Cl)cc3)CC2C(=O)N2CCCC1C2 (mixture of isomers) [X D7 B4 W Acid 25] | 0.25 | 0.25 | – | – | – |
| O=C1NCCSSCCC(=O)N2CCN(C(=O)c3ccc(Cl)s3)CC2C(=O)NC(Cc2ccccc2)C(=O)NCc2cccc1c2 (mixture of isomers) [X D7 F B5 Acid 14] | – | – | – | – | fraction fluorescent probe displaced, Screen (Acid 14): 0.11; fraction fluorescent probe displaced, Replicate (Acid 14): 0.17 |
| O=C1NCCSSCCC(=O)N2CCN(C(=O)c3ccc(Cl)cc3)CC2C(=O)NC(Cc2c[nH]c3ccccc23)C(=O)NCc2cccc1c2 (mixture of isomers) [X D7 W B5 Acid 25] | 0.61 | 0.58 | – | – | – |
| O=C1CCSSCCNC(=O)C2CCCN2C(=O)C2CN(C(=O)C=Cc3ccccc3)CCN2C(=O)C(Cc2ccccc2)N1 (mixture of isomers) [X F D7 B1 Acid 91] | – | – | -0.0241 | -0.06 | – |
| O=C1CCSSCCNC(=O)c2cccc(c2)CNC(=O)C2CN(C(=O)c3ccc(Cl)cc3)CCN2C(=O)C(Cc2ccccc2)N1 (mixture of isomers) [X F D7 B5 Acid 25] | 0.09 | 0.07 | – | – | – |
| O=C1CCSSCCNC(=O)C2CN(C(=O)C=Cc3ccccc3)CCN2C(=O)C2CCCN2C(=O)C(Cc2c[nH]c3ccccc23)N1 (mixture of isomers) [X W B1 D7 Acid 91] | – | – | 0.22 | 0.07 | – |
| O=C1CCSSCCNC(=O)C2CN(C(=O)c3ccc(Cl)s3)CCN2C(=O)CCNC(=O)C(Cc2c[nH]c3ccccc23)N1 (mixture of isomers) [X W B2 D7 Acid 14] | – | – | – | – | fraction fluorescent probe displaced, Screen (Acid 14): 0.08; fraction fluorescent probe displaced, Replicate (Acid 14): 0.17 |
| O=C1CCSSCCNC(=O)C2CCCN2C(=O)C2CN(C(=O)C=Cc3ccccc3)CCN2C(=O)C(Cc2c[nH]c3ccccc23)N1 (mixture of isomers) [X W D7 B1 Acid 91] | – | – | -0.08 | 0.0168 | – |
| CC(C)=CCCC(C)CC(=O)NCC1NC(=O)C2CCCN2C(=O)CCSSCCNC(=O)C(Cc2c[nH]c3ccccc23)NC1=O (mixture of isomers) [X-B1-D3-W + A84] | – | – | – | – | fraction fluorescent probe displaced (10 µM macrocycle concentration, crude acylated macrocycle (scaffold Mpa-AA1-AA2-AA3 x carboxylic acid), p53-based fluorescent peptide, human MDM2): 0.05085 |
| O=C(NC[C@@H]1NC(=O)[C@@H]2CCCN2C(=O)CCSSCCNC(=O)[C@H](Cc2ccccc2)NC1=O)c1ccc(Cl)cc1 [X B1 D3 F Acid 25] ([Mpa]P[Dap](Benzoyl(4-Cl))F-Cysteamide; disulfide 1-C) | 0.22 | 0.22 | – | – | – |
| O=C(/C=C/c1ccccc1)NC[C@@H]1NC(=O)[C@@H]2CCCN2C(=O)CCSSCCNC(=O)[C@H](Cc2ccccc2)NC1=O [X B1 D3 F Acid 91] ([Mpa]P[Dap](X1)F-Cysteamide; disulfide 1-C) | – | – | 0.08 | 0.0168 | – |
| O=C(NC[C@@H]1NC(=O)[C@@H]2CCCN2C(=O)CCSSCCNC(=O)[C@H](Cc2c[nH]c3ccccc23)NC1=O)c1ccc(Cl)s1 [X B1 D3 W Acid 14] ([Mpa]P[Dap](2Thenoyl(5-Cl))W-Cysteamide; disulfide 1-C) | – | – | – | – | fraction fluorescent probe displaced, Screen (Acid 14): 0.17; fraction fluorescent probe displaced, Replicate (Acid 14): 0.10 |
| O=C(NCC1NC(=O)C2CCCN2C(=O)CCSSCCNC(=O)C(Cc2c[nH]c3ccccc23)NC1=O)c1ccc(Cl)cc1 (stereo not drawn) [X B1 D3 W Acid 25] ([Mpa]P[Dap](Benzoyl(4-Cl))W-Cysteamide; disulfide 1-C; configuration not given here) | 0.22 | 0.20 | – | – | – |
| O=C(/C=C/c1ccccc1)NC[C@@H]1NC(=O)[C@@H]2CCCN2C(=O)CCSSCCNC(=O)[C@H](Cc2c[nH]c3ccccc23)NC1=O [X B1 D3 W Acid 91] ([Mpa]P[Dap](X1)W-Cysteamide; disulfide 1-C) | – | – | 0.11 | 0.07 | – |
| O=C(N[C@H]1C[C@H]2C(=O)N[C@@H](Cc3ccccc3)C(=O)NCCSSCCC(=O)N3CCC[C@H]3C(=O)N2C1)c1ccc(Cl)cc1 [X B1 D5 F Acid 25] ([Mpa]P[Pro(cis-4-NHBenzoyl(4-Cl))]F-Cysteamide; disulfide 1-C) | 0.16 | 0.15 | – | – | – |
| O=C(NC1CC2C(=O)NC(Cc3c[nH]c4ccccc34)C(=O)NCCSSCCC(=O)N3CCCC3C(=O)N2C1)c1ccc(Cl)s1 (stereo not drawn) [X B1 D5 W Acid 14] ([Mpa]P[ξPro(4-NHCO(5-Cl-2-thienyl))]W-Cysteamide; disulfide 1-C; configuration not given here) | – | – | – | – | fraction fluorescent probe displaced, Screen (Acid 14): 0.28; fraction fluorescent probe displaced, Replicate (Acid 14): 0.0465 |
| O=C(/C=C/c1ccccc1)N[C@H]1C[C@H]2C(=O)N[C@@H](Cc3c[nH]c4ccccc34)C(=O)NCCSSCCC(=O)N3CCC[C@H]3C(=O)N2C1 [X B1 D5 W Acid 91] ([Mpa]P[Pro(cis-4-NH-(E)-Cinnamoyl)]W-Cysteamide; disulfide 1-C) | – | – | 0.03 | 0.04 | – |
| O=C1NCCSSCCC(=O)N2CCC[C@H]2C(=O)NC2(CCN(C(=O)c3ccc(Cl)s3)CC2)C(=O)N[C@H]1Cc1ccccc1 [X B1 D6 F Acid 14] ([Mpa]P[Api](2Thenoyl(5-Cl))F-Cysteamide; disulfide 1-C) | – | – | – | – | fraction fluorescent probe displaced, Screen (Acid 14): -0.0116; fraction fluorescent probe displaced, Replicate (Acid 14): 0.07 |
| O=C1NCCSSCCC(=O)N2CCC[C@H]2C(=O)NC2(CCN(C(=O)/C=C/c3ccccc3)CC2)C(=O)N[C@H]1Cc1ccccc1 [X B1 D6 F Acid 91] ([Mpa]P[Api](X1)F-Cysteamide; disulfide 1-C) | – | – | -0.10 | 0.05 | – |
| O=C1NCCSSCCC(=O)N2CCC[C@H]2C(=O)NC2(CCN(C(=O)/C=C/c3ccccc3)CC2)C(=O)N[C@H]1Cc1c[nH]c2ccccc12 [X B1 D6 W Acid 91] ([Mpa]P[Api](X1)W-Cysteamide; disulfide 1-C) | – | – | -0.08 | -0.08 | – |
| O=C1NCCSSCCC(=O)N2CCCC2C(=O)N2CCN(C(=O)c3ccc(Cl)cc3)CC2C(=O)NC1Cc1c[nH]c2ccccc12 (stereo not drawn) [X B1 D7 W Acid 25] | 0.09 | 0.10 | – | – | – |
| O=C(NC[C@@H]1NC(=O)[C@H](Cc2ccccc2)NC(=O)[C@@H]2CCCN2C(=O)CCSSCCNC1=O)c1ccc(Cl)s1 [X B1 F D3 Acid 14] ([Mpa]PF[Dap](2Thenoyl(5-Cl))-Cysteamide; disulfide 1-C) | – | – | – | – | fraction fluorescent probe displaced, Screen (Acid 14): 0.08; fraction fluorescent probe displaced, Replicate (Acid 14): 0.10 |
